We go through eleven molecules from patent US20220241202A1, “METHOD AND VEHICLE FOR DELIVERING AGENTS ACROSS THE BLOOD-BRAIN BARRIER” (priority 2019, published 2022).

Assay [1] deals with CAD cells. The assay can be described thus: Screen of J proteins for EV-mediated export of misfolded huntingtin (western blot and nanoscale flow cytometry). It counts as cell-based. The settings on record: cells expressing GFP-tagged 72Q huntingtin^exon1 and the J protein. The procedure:
(§1) Cell lines were transfected with the molecular chaperone CSPα and a GFP-tagged protein. CAD cells (catecholaminergic derived CNS cells) were the cell line utilized. Other cell lines, including patient-derived cell lines, may also be utilized. cDNAs encoding for myc-tagged CSPα or vector alone and GFP-72Q huntingtin^exon1 were transiently transfected with Lipofectamine™ 3000 (Invitrogen) in Opti-MEM™ medium. Media was changed to serum-free media 6 hours post-transfection. Media was collected 48 hours after transfection, spun at 300×g for 5 min to remove cell debris and evaluated without further processing by nanocyte tracking analysis, nanoscale flow cytometry analysis and dot blot analysis. For western blot analysis, EVs were isolated from the unfractionated media by exoquick precipitation solution (SBI) and solubilized in sample buffer. Following media collection, cell viability was determined using an XTT assay (New England Biolabs). When resveratrol was used, it was added to the serum-free media 6 hours post-transfection at the time of the media change.
(§2) Proteins were separated by SDS-PAGE and electrotransferred from polyacrylamide gels to nitrocellulose membrane (0.2 μm pore size). Membranes were blocked in tris-buffered saline (TBS) containing 0.1% Tween 20, 1% BSA and then incubated with primary antibody overnight at 4° C. The membranes were washed and incubated with horseradish peroxidase-coupled secondary antibody for about 2 hours at room temperature. Bound antibodies on the membranes were detected by incubation with Pierce chemiluminescent reagent and exposure to Cdigit, LiCor (Mandel). The chemiluminescent signals were quantified using image studio digits software (Mandel). For dot blots, 10 μl of unfractionated media was spotted on a nitrocellulose membrane, dried and the membrane was processed as described above.
(§3) Samples were similarly prepared for nanoscale flow cytometry as for NTA. All samples were analyzed using the Apogee A50 flow cytometry platform. Light scatter was provided using the 405 nm laser (75 mW); GFP signal was generated using the 488 nm laser (50 mW, 535/35) and far red signal was generated using the 630 nm laser (75 mW, 680/35). All samples were analyzed for 60 seconds. Optimization was performed to insure single EVs were being analyzed and single events were triggered by light scatter only. The system was cleaned each day prior to sample analysis and a variety of silica and polystyrene standards (Apogee 1493 standards) processed for instrument set up and QC. The silica standards were used to assess the relative size range of EVs. Nanoscale flow cytometry measures EVs within a size range from about 100 nm to about 1,300 nm.
To test whether other J proteins may also export misfolded proteins, several J proteins with reported links to neurodegeneration were screened for EV-mediated export activity. […] Alternative splicing of the DnaJB2 gene produces two isoforms, a DnaJB2short and a 42 kDa DnaJB2long isoform that undergoes C terminal geranylgeranylation. DnaJB2long was studied further. […] Extracellular milieu includes free floating co-chaperones in addition to EVs, and chaperones that adhere to EVs were expected to co-isolate with EVs. […] In fact, DnaJB11 as well as DnaJA1 were robustly secreted by CAD neurons under all conditions evaluated (FIG. 5C).
Background: In western blotting, separated proteins are transferred to a membrane and probed.

Assay [2] relates to CAD cells. The assay can be described thus: Nanoscale flow cytometry of EVs secreted from CAD cells expressing GFP-72Q huntingtin^exon1. It counts as cell-based. The procedure: as §1
For NTA and nanoscale flow cytometry analysis, all samples were diluted 25 fold using 0.2× phosphate buffered saline that had been filtered twice through 0.2 μm filter. For NTA analysis, all samples were analyzed using the Nanosight LM10 (405 nm laser, 60 mW, software version 3.00064). Samples were analyzed in triplicate for 60 seconds per replicate with a count range of 20-100 particles per frame. A variety of NIST (Thermo Scientific 3000 Series) standards were analyzed, each the day prior to sample analysis. The system was cleaned between each sample and checked for any sample carryover using the PBS diluent. NTA measures EVs within a size range from about 30 nm to about 1,000 nm.
as §3, with “nm. […]” for “nm.”
(In general: A flow cytometer gives signals particle by particle.)

Assay [3] concerns CAD cells. The assay can be described thus: Western blot / dot blot analysis of GFP-72Q huntingtin^exon1 in EVs collected from CAD cells. It counts as cell-based. The procedure: as §1, §2
The test system of assay [4] is naive CAD cells. The assay can be described thus: EV delivery of GFP-72Q huntingtin^exon1 cargo to naive recipient CAD cells (live cell fluorescence imaging). The assay is classed as cell-based. The procedure:
Images of live cells were taken with the EVOS FL Auto Imaging System. Images of donor cells were taken at the time of media collection. Images of recipient cells were taken between 1-48 hours. The intensity of the GFP-72Q huntingtin^exon1 varied among cells and a single slider was used until the on-screen brightness of the lowest intensity aggregate was satisfactory and used this setting to capture images in high-quality mode. Where indicated, after the 300×g for 5 minutes conditioned media spin to remove cell debris, 60 μl of Exo-Red (SBI) was incubated with 1 ml media containing EVs for 10 minutes at 37° C. to label the RNA EV cargo. 150 μl of exo-quick was added, the labelled EVs were placed on ice for 30 min and then centrifuged for 3 minutes at 20,000×g. The labelled EV pellet was resuspended in 1 ml of DMEM-F12 media and applied to target cells.

The conditions of assay [5]: previously shown; cited from earlier work.
Setting [6] is: presence of CSPα and 50 μM resveratrol.

Take DnaJC13: related J protein: the “EV-mediated export of misfolded huntingtin” value in assay [1] was “did not export misfolded huntingtin”.

With `Oc1ccc(C=Cc2cc(O)cc(O)c2)cc1` [resveratrol, Resveratrol], the “GFP-72Q huntingtin^exon1-containing EVs” value in assay [2] (50 μM resveratrol 6 hours following transfection) is recorded as “decreasing”. For the same molecule, the “total EVs exported by CAD cells” value in assay [2] (50 μM resveratrol 6 hours following transfection, all conditions (vector, CSPα, CSPαL115R, CSPαΔ116)) is given as “increased total EVs exported by CAD cells in all conditions”. Besides, in assay [2] (50 μM resveratrol, all conditions), the “mean size of vesicles” value was “increased the mean size of vesicles”. In addition, the “total EV secretion” value in assay [2] (50 μM resveratrol, control, vector and CSPα-expressing cells) is on record as “increases total EV secretion”. Moreover, the “CSPα-EV export of EVs containing GFP-72Q huntingtin^exon1” value in assay [2] (50 μM resveratrol, p<0.0001) is given as “significantly reduced”. Besides, in assay [2] (setting [6]), the “EVs containing GFP cargo within the 180-240 nm subpopulation” value came out at 0.53%, the “EVs containing GFP cargo within the <180 nm subpopulation” value is 0.03% and the “EVs containing GFP cargo within the >240 nm subpopulation” value came out at 0.78%. Also, the “secretion of the 180-240 nm GFP-labelled EV pool” value in assay [2] (resveratrol concentration response) is “significantly reduced secretion of the 180-240 nm GFP-labelled EV pool in a concentration-dependent manner”. Further, in assay [3] (50 μM resveratrol), the “secretion of GFP-72Q huntingtin^exon1 and CSPα (western blot of EVs)” value is given as “reduced secretion of GFP-72Q huntingtin^exon1 but not CSPα”; the “secretion of GFP-72Q huntingtin^exon1 mediated by CSPα and ANCL mutants” value is “reduced secretion of GFP-72Q huntingtin^exon1 mediated by CSPα, CSPαL115R and CSPαΔ116”. Further, the “GFP cargo in recipient cells” value in assay [4] (media produced from neurons treated with 50 μM resveratrol) is “GFP cargo was still detected in recipient cells”.

With α-synuclein, the “mutant huntingtin export with increasing protein expression” value in assay [3] (western blot of EVs) was “did not result in mutant huntingtin export”. Moreover, in assay [4] (conditioned media applied to naive cells, imaged 1-48 hours), the “GFP-72Q huntingtin^exon1 cargo / aggregates in recipient CAD cells after media application” value is given as “low levels of GFP signal at 24 hours”.

As for DnaJC19: related J protein, the “EV-mediated export of misfolded huntingtin” value in assay [1] was “did not export misfolded huntingtin”.

Turning to DnaJA1: related J protein, the “EV-mediated export of misfolded huntingtin” value in assay [1] was “did not export misfolded huntingtin”.

DnaJB1: related J protein: the “EV-mediated export of misfolded huntingtin” value in assay [1] is given as “did not export misfolded huntingtin”.

B1: CSPαL115R: CSPα with the human L115R mutation that causes ANCL (protein, UniProt Q9H3Z4 1-198, looked up, variant L115R)
DnaJ homolog subfamily C …: MADQRQRSLSTSGESLYHVLGLDKNATSDDIKKSYRKLALKYHPDKNPDNPEAADKFKEINNAHAILTDATKRNIYDKYGSLGLYVAEQFGEENVNTYFVLSSWWAKALFVFCGRLTCCYCCCCLCCCFNCCCGKCKPKAPEGEETEFYVSPEDLEAQLQSDEREATDTPIVIQPASATETTQLTADSHPSYHTDGFN
B1: the “export of GFP-72Q huntingtin^exon1” value in assay [5] was “promote export”.

B2: CSPαΔ116: CSPα with the human L116Δ mutation that causes ANCL (protein, UniProt Q9H3Z4 1-198, looked up, variant L116*)
DnaJ homolog subfamily C …: MADQRQRSLSTSGESLYHVLGLDKNATSDDIKKSYRKLALKYHPDKNPDNPEAADKFKEINNAHAILTDATKRNIYDKYGSLGLYVAEQFGEENVNTYFVLSSWWAKALFVFCGLTCCYCCCCLCCCFNCCCGKCKPKAPEGEETEFYVSPEDLEAQLQSDEREATDTPIVIQPASATETTQLTADSHPSYHTDGFN
As to B2, the “export of GFP-72Q huntingtin^exon1” value in assay [5] was “promote export”.

B3: DnaJB2: DnaJ Heat Shock Protein Family (Hsp40) Member B2 (protein, UniProt P25686 2-321, looked up)
DnaJ homolog subfamily B …: ASYYEILDVPRSASADDIKKAYRRKALQWHPDKNPDNKEFAEKKFKEVAEAYEVLSDKHKREIYDRYGREGLTGTGTGPSRAEAGSGGPGFTFTFRSPEEVFREFFGSGDPFAELFDDLGPFSELQNRGSRHSGPFFTFSSSFPGHSDFSSSSFSFSPGAGAFRSVSTSTTFVQGRRITTRRIMENGQERVEVEEDGQLKSVTINGVPDDLALGLELSRREQQPSVTSRSGGTQVQQTPASCPLDSDLSEDEDLQLAMAYSLSEMEAAGKKPAGGREAQHRRQGRPKAQHQDPGLGGTQEGARGEATKRSPSPEEKASRC
In the case of B3, in assay [1], the “EV-mediated export of misfolded huntingtin” value is listed as “exports misfolded huntingtin in EVs”.

B4: DnaJB11: related J protein (protein, UniProt Q9UBS4 23-358, looked up)
DnaJ homolog subfamily B …: GRDFYKILGVPRSASIKDIKKAYRKLALQLHPDRNPDDPQAQEKFQDLGAAYEVLSDSEKRKQYDTYGEEGLKDGHQSSHGDIFSHFFGDFGFMFGGTPRQQDRNIPRGSDIIVDLEVTLEEVYAGNFVEVVRNKPVARQAPGKRKCNCRQEMRTTQLGPGRFQMTQEVVCDECPNVKLVNEERTLEVEIEPGVRDGMEYPFIGEGEPHVDGEPGDLRFRIKVVKHPIFERRGDDLYTNVTISLVESLVGFEMDITHLDGHKVHISRDKITRPGAKLWKKGEGLPNFDNNNIKGSLIITFDVDFPKEQLTEEAREGIKQLLKQGSVQKVYNGLQGY
B4: the “EV-mediated export of misfolded huntingtin” value in assay [1] was “did not export misfolded huntingtin”.

B5: DnaJC14: related J protein (protein, UniProt Q6Y2X3 1-702, looked up)
DnaJ homolog subfamily C …: MAQKHPGERGLYGAHHSGGASLRTLGPSVDPEIPSFSGLRDSAGTAPNGTRCLTEHSGPKHTQHPNPAHWLDPSHGPPGGPGPPRDAEDPDQSETSSEEESGVDQELSKENETGNQKDGNSFLSIPSACNCQGTPGIPEGPYSEGGNGSSSNFCHHCTSPALGEDELEEEYDDEESLKFPSDFSRVSSGKKPPSRRQRHRFPTKEDTREGGRRDPRSPGRHRLGRKRSQADKRKGLGLWGAEELCQLGQAGFWWLIELLVLVGEYVETCGHLIYACRQLKSSDLDLFRVWMGVWTGRLGGWAQVMFQFLSQGFYCGVGLFTRFLKLLGALLLLALALFLGFLQLGWRFLVGLGDRLGWRDKATWLFSWLDSPALQRCLTLLRDSRPWQRLVRIVQWGWLELPWVKQNINRQGNAPVASGRYCQPEEEVARLLTMAGVPEDELNPFHVLGVEATASDVELKKAYRQLAVMVHPDKNHHPRAEEAFKVLRAAWDIVSNAEKRKEYEMKRMAENELSRSVNEFLSKLQDDLKEAMNTMMCSRCQGKHRRFEMDREPKSARYCAECNRLHPAEEGDFWAESSMLGLKITYFALMDGKVYDITEWAGCQRVGISPDTHRVPYHISFGSRIPGTRGRQRATPDAPPADLQDFLSRIFQVPPGQMPNGNFFAAPQPAPGAAAASKPNSTVPKGEAKPKRRKKVRRPFQR
For the molecule B5, the “EV-mediated export of misfolded huntingtin” value in assay [1] was “did not export misfolded huntingtin”.
